The results in this text go back to PubChem BioAssay AID328 (DTP/NCI, 2004).

The test system of this experiment is BDF1 mice, P388 leukemia ip, median survival T/C. The experiment is described as follows: NCI In Vivo Anticancer Drug Screen. Data for tumor model P388 Leukemia (intraperitoneal) in B6D2F1 (BDF1) mice. As to conditions: endpoint: median survival time, higher = longer survival. A digest of the protocol:
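Read-out is survival of treated animals expressed relative to the vehicle group, as a T/C ratio.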

[1] abbreviates: dose: 25.0 mg/kg/injection, schedule: Q04DX003 (ip), vehicle: Klucel (hydroxypropylcellulose) (HPC).
[2] abbreviates: dose: 50.0 mg/kg/injection, schedule: Q01DX009 (ip), vehicle: saline.
Where [3] appears, read: dose: 50.0 mg/kg/injection, schedule: Q04DX003 (ip), vehicle: Klucel (hydroxypropylcellulose) (HPC).
Where [4] appears, read: dose: 100.0 mg/kg/injection, schedule: Q01DX009 (ip), vehicle: saline.
Where [5] appears, read: dose: 100.0 mg/kg/injection, schedule: Q04DX003 (ip), vehicle: Klucel (hydroxypropylcellulose) (HPC).
The mark [6] stands for this setting: dose: 200.0 mg/kg/injection, schedule: Q01DX009 (ip), vehicle: saline.
Setting [7] is: dose: 200.0 mg/kg/injection, schedule: Q04DX003 (ip), vehicle: Klucel (hydroxypropylcellulose) (HPC).
The mark [8] stands for this setting: dose: 400.0 mg/kg/injection, schedule: Q04DX003 (ip), vehicle: Klucel (hydroxypropylcellulose) (HPC).
[9] abbreviates: dose: 100.0 mg/kg/injection, schedule: Q04DX003 (ip), vehicle: saline with Tween-80.
Setting [10] is: dose: 200.0 mg/kg/injection, schedule: Q04DX003 (ip), vehicle: saline with Tween-80.
[11] abbreviates: dose: 400.0 mg/kg/injection, schedule: Q04DX003 (ip), vehicle: saline with Tween-80.
Setting [12] is: dose: 50.0 mg/kg/injection, schedule: Q01DX009 (ip), vehicle: Klucel (hydroxypropylcellulose) (HPC).
Setting [13] is: dose: 75.0 mg/kg/injection, schedule: Q01DX009 (ip), vehicle: Klucel (hydroxypropylcellulose) (HPC).
Where [14] appears, read: dose: 100.0 mg/kg/injection, schedule: Q01DX009 (ip), vehicle: Klucel (hydroxypropylcellulose) (HPC).
Setting [15] is: dose: 100.0 mg/kg/injection, schedule: Q01DX009 (ip), vehicle: saline with Tween-80.
Setting [16] is: dose: 25.0 mg/kg/injection, schedule: Q01DX009 (ip), vehicle: Klucel (hydroxypropylcellulose) (HPC).
Setting [17] is: dose: 100.0 mg/kg/injection, schedule: Q01DX001 (ip), vehicle: saline with Tween-80.
The mark [18] stands for this setting: dose: 200.0 mg/kg/injection, schedule: Q01DX001 (ip), vehicle: saline with Tween-80.

“And” between values parts separate entries of the source, which are not always exact repeats. Equal values may be shown once. Toxic doses and inconclusive results are not listed.

For the compound `Cc1nn(-c2ccccc2)c(N)c1C#N`, the T/C by setting is: (dose: 6.25 mg/kg/injection, schedule: Q01DX009 (ip), vehicle: saline) 111 % of control; (dose: 12.5 mg/kg/injection, schedule: Q01DX009 (ip), vehicle: saline) 94 % of control; (dose: 12.5 mg/kg/injection, schedule: Q04DX003 (ip), vehicle: saline) 98 % of control; (dose: 25.0 mg/kg/injection, schedule: Q01DX009 (ip), vehicle: saline) 102 % of control; under setting [1], 98 % of control; (dose: 25.0 mg/kg/injection, schedule: Q04DX003 (ip), vehicle: saline) 163 % of control. Moreover, the T/C is 111 % of control under setting [2]; 98 % of control under setting [3]; 86 % of control (dose: 50.0 mg/kg/injection, schedule: Q04DX003 (ip), vehicle: saline); 96 % of control under setting [4]; 121 % of control under setting [5]; 87 % of control (dose: 100.0 mg/kg/injection, schedule: Q04DX003 (ip), vehicle: saline). Further, the T/C runs as follows: under setting [6], 111 % of control; under setting [7], 113 % of control; (dose: 200.0 mg/kg/injection, schedule: Q04DX003 (ip), vehicle: saline) 269 % of control; (dose: 400.0 mg/kg/injection, schedule: Q01DX009 (ip), vehicle: saline) 105 % of control; under setting [8], 102 % of control.
For `Cc1c(Cl)cccc1NC(=O)COc1ccc(Cl)cc1Cl`, the T/C is 108 % of control under setting [9], 87 % of control under setting [10] and 95 % of control under setting [11].
Regarding `CC(=O)NNC(=O)c1ccccc1`, the T/C is, setting by setting: (dose: 12.0 mg/kg/injection, schedule: Q04DX003 (ip), vehicle: Klucel (hydroxypropylcellulose) (HPC)) 104 % of control; under setting [1], 100 % of control; under setting [12], 87 % of control; under setting [3], 104 % of control; under setting [13], 105 % of control; (dose: 75.0 mg/kg/injection, schedule: Q04DX003 (ip), vehicle: Klucel (hydroxypropylcellulose) (HPC)) 100 % of control. The T/C under setting [14] was 87 % of control; the T/C under setting [5] is 90 % of control; the T/C (dose: 150.0 mg/kg/injection, schedule: Q01DX009 (ip), vehicle: Klucel (hydroxypropylcellulose) (HPC)) was 110 % of control; the T/C (dose: 200.0 mg/kg/injection, schedule: Q01DX009 (ip), vehicle: Klucel (hydroxypropylcellulose) (HPC)) was 91 % of control; the T/C under setting [7] was 95 % of control and 100 % of control; the T/C under setting [8] is 109 % of control and 118 % of control.
As for `CCN(CC)CCCC(C)NCCCN` (stereo unspecified), the T/C is, setting by setting: under setting [2], 96 % of control; under setting [4], 96 % of control; under setting [6], 94 % of control.
`ClCCOCCCl`: the T/C runs as follows: (dose: 50.0 mg/kg/injection, schedule: Q01DX009 (ip), vehicle: saline with Tween-80) 115 % of control; under setting [15], 124 % of control.
As for `O=C1C=C(Nc2ccc(Cl)cc2)C(Nc2ccc(Cl)cc2)=CC1=O`, the T/C by setting is: (dose: 62.5 mg/kg/injection, schedule: Q01DX009 (ip), vehicle: saline with Tween-80) 89 % of control; (dose: 125.0 mg/kg/injection, schedule: Q01DX009 (ip), vehicle: saline with Tween-80) 87 % of control; (dose: 250.0 mg/kg/injection, schedule: Q01DX009 (ip), vehicle: saline with Tween-80) 91 % of control.
For `O=[N+]([O-])c1ccc(N=NNc2ccc(N=Nc3ccccc3)cc2)cc1`, the T/C is 109 % of control (dose: 12.5 mg/kg/injection, schedule: Q01DX009 (ip), vehicle: Klucel (hydroxypropylcellulose) (HPC)); 118 % of control under setting [16]; 95 % of control under setting [12]; 100 % of control under setting [13]; 95 % of control (dose: 115.0 mg/kg/injection, schedule: Q01DX009 (ip), vehicle: Klucel (hydroxypropylcellulose) (HPC)); 90 % of control (dose: 170.0 mg/kg/injection, schedule: Q01DX009 (ip), vehicle: Klucel (hydroxypropylcellulose) (HPC)).
Turning to `C#CC(C)OCC(C)OC` (stereo unspecified), the T/C is, setting by setting: (dose: 12.5 mg/kg/injection, schedule: Q04DX003 (ip), vehicle: saline with Tween-80) 118 % of control; (dose: 50.0 mg/kg/injection, schedule: Q04DX003 (ip), vehicle: saline with Tween-80) 118 % of control.
Consider `CCCCNC(C)(C)C(SSS(=O)(=O)O)c1ccc(Cl)cc1` (stereo unspecified), for which the T/C runs as follows: under setting [9], 100 % of control; under setting [10], 100 % of control; under setting [11], 116 % of control.
Consider `CCN(CC)CCCC#CCN1CCCCC1`, for which the T/C by setting is: under setting [16], 100 % of control; under setting [1], 91 % of control; under setting [12], 90 % of control; under setting [3], 91 % of control; under setting [14], 100 % of control; under setting [5], 91 % of control.
For `Cc1ccc(CNc2cccnc2)cc1`, the T/C (dose: 50.0 mg/kg/injection, schedule: Q01DX009 (ip), vehicle: other) was 95 % of control; the T/C (dose: 100.0 mg/kg/injection, schedule: Q01DX009 (ip), vehicle: other) was 104 % of control; the T/C under setting [15] was 100 % of control; the T/C (dose: 200.0 mg/kg/injection, schedule: Q01DX009 (ip), vehicle: other) was 100 % of control; the T/C (dose: 400.0 mg/kg/injection, schedule: Q01DX009 (ip), vehicle: saline with Tween-80) was 100 % of control.
As to `Cc1ccc(C(=O)N/N=C/C(=O)O)cc1`, the T/C runs as follows: (dose: 12.5 mg/kg/injection, schedule: Q04DX003 (ip), vehicle: Klucel (hydroxypropylcellulose) (HPC)) 113 % of control; under setting [1], 106 % of control; under setting [3], 116 % of control; under setting [5], 106 % of control; under setting [7], 122 % of control.
In the case of `CSc1nc(Cl)c(Br)c(Sc2nc(N)nc3nc[nH]c23)n1`, the T/C (dose: 132.0 mg/kg/injection, schedule: Q04DX003 (ip), vehicle: saline with Tween-80) was 120 % of control.
With `CC(C)(C)c1cccc(C(C)(C)C)c1`, the T/C is, setting by setting: under setting [17], 100 % of control; under setting [18], 94 % of control.
As for `COc1cc(/C=N/N=C(\N)N[N+](=O)[O-])cc(OC)c1OC`, the T/C runs as follows: under setting [17], 90 % of control; under setting [18], 90 % of control; (dose: 400.0 mg/kg/injection, schedule: Q01DX001 (ip), vehicle: saline with Tween-80) 90 % of control.
Take `CCOC(=O)C(Cc1ccc(N(CCCl)CCCl)cc1)NC=O` (stereo unspecified): the T/C by setting is: (dose: 66.0 mg/kg/injection, schedule: Q04DX003 (ip), vehicle: saline with Tween-80) 181 % of control; under setting [9], 200 % of control and 209 % of control; (dose: 150.0 mg/kg/injection, schedule: Q04DX003 (ip), vehicle: saline with Tween-80) 268 % of control and 272 % of control; (dose: 375.0 micrograms/kg/injection, schedule: Q04DX003 (ip), vehicle: saline with Tween-80) 110 % of control; (dose: 750.0 micrograms/kg/injection, schedule: Q04DX003 (ip), vehicle: saline with Tween-80) 120 % of control.
As to `O=[Se](=O)(c1ccccc1)c1ccccc1`, the T/C runs as follows: (dose: 100.0 mg/kg/injection, schedule: Q04DX002 (ip), vehicle: saline with Tween-80) 97 % of control; (dose: 200.0 mg/kg/injection, schedule: Q04DX002 (ip), vehicle: saline with Tween-80) 103 % of control; (dose: 400.0 mg/kg/injection, schedule: Q04DX002 (ip), vehicle: saline with Tween-80) 94 % of control.
